In patent US8785499B2 (priority 2009, dated 2014):

Assays:
[1] = target: baNadD (Bacillus anthracis, UniProt C3L5T6); test: biochemical; format: biochemical; conditions: for inhibition at 50 µM: read-out: INHIBITION (%) B. anthracis; for IC50: IC50 baNadD
[2] = target: ecNadD (Escherichia coli (strain K12), UniProt P0A752); test: biochemical; format: biochemical; conditions: for inhibition at 100 µM: read-out: INHIBITION (%) E. coli; for IC50: IC50 ecNadD

Sequence of baNadD (C3L5T6 whole entry, looked up): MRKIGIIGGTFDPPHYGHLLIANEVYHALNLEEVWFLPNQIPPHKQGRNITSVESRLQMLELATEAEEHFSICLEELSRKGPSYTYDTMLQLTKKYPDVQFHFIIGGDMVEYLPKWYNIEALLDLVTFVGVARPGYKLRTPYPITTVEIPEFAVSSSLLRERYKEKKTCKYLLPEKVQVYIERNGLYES

Row | SMILES | inhibition at 50 µM [1] | inhibition at 100 µM [2] | […]. anthracis [1] | […]. coli [2] | IC50 [1] | IC50 [2]
1 | CCc1ccc(N/C=C2\C(=O)Nc3ccccc32)cc1 [15_24] | 17% | 9% | – | – | – | –
2 | CSc1ccc(N/C=C2\C(=O)Nc3ccccc32)cc1 [15_12] | 25% | 12% | – | – | – | –
3 | O=C1C/C(=C/NCCc2ccc(O)cc2)C(=O)N1 [compound 068] | – | – | 10% | 13% | – | –
4 | CCOC(=O)c1cc(-c2ccc(C)cc2)[nH]n1 [compound 106] | – | – | 0% | 9% | – | –
5 | CC(=O)c1ccc(NC(=O)CC(NCc2cccnc2)C(=O)O)cc1 (centres unmarked) [compound 127] | – | – | 59% | 7% | – | –
6 | O=C(CSc1ncnc2ccccc12)Nc1ccc2nsnc2c1 [compound 228] | – | – | 28% | 0% | – | –
7 | Cc1ccc(-c2nnc(SCC(=O)O)[nH]2)cc1 [compound 160] | – | – | 0% | 4% | – | –
8 | Cc1ccccc1N/C=C1\C(=O)Nc2ccccc21 [15_31] | 27% | 7% | – | – | 112 µM | 118 µM
9 | Nc1c(C(=O)Nc2ccc(Cl)cc2Cl)sc2nc(-c3cccs3)ccc12 [03_11] | 90% | 54% | – | – | 13 µM | 30 µM
10 | O=C(O)c1ccc2[nH]c(CCc3nc4cc(C(=O)O)ccc4[nH]3)nc2c1 [compound 235] | – | – | 0% | 0% | – | –
11 | O=C(O)c1cc(NS(=O)(=O)c2cccc3nsnc23)cc(C(=O)O)c1 [compound 153] | – | – | 0% | 5% | – | –
12 | N=C(NNS(=O)(=O)c1ccccc1)c1ccccn1 [compound 161] | – | – | 68% | 4% | – | –
13 | O=[N+]([O-])c1ccc2[nH]c(CCc3nc4cc([N+](=O)[O-])ccc4[nH]3)nc2c1 [compound 252] | – | – | 0% | 0% | – | –
14 | Cc1ccc(C(=O)Nc2ccccc2)cc1S(=O)(=O)Nc1ccccn1 [compound 071] | – | – | 7% | 12% | – | –
15 | O=C1NC(=O)/C(=C\c2ccc(C(=O)O)cc2)N1 [compound 007] | – | – | 34% | 54% | – | –
16 | Cn1c(=O)n(C)c2cc(S(=O)(=O)NCCC(=O)O)ccc21 [compound 249] | – | – | 1% | 0% | – | –
17 | O=[N+]([O-])c1cc2c(cc1/C=N/Nc1nnn[nH]1)OCO2 [compound 063] | – | – | 81% | 14% | – | –
18 | O=C(CNS(=O)(=O)c1ccc(Br)s1)NCCC1=CCCCC1 [compound 289] | – | – | 4% | 0% | – | –
19 | O=[N+]([O-])c1cccc(S(=O)(=O)Nn2cnnc2)c1 [compound 241] | – | – | 59% | 0% | – | –
20 | COc1cccc(N/C=C2\C(=O)Nc3ccccc32)c1 [15_37] | 1% | 4% | – | – | – | –

Row | SMILES | inhibition at 50 µM [1] | inhibition at 100 µM [2] | […]. anthracis [1] | […]. coli [2] | IC50 [1] | IC50 [2]
21 | O=C1Nc2ccccc2/C1=C/Nc1ccc(Br)cc1 [15_09] | 60% | 13% | – | – | 111 µM | > 200 µM
22 | CC(=O)c1ccc(N/C=C2/C(=O)Nc3ccccc32)cc1 [15_42] | 11% | 0% | – | – | – | –
23 | COC(=O)c1sc(NC(=O)/C=C/C(=O)O)nc1C [compound 009] | – | – | 0% | 45% | – | –
24 | CC(N/C=C1\C(=O)Nc2ccccc21)c1ccccc1 (centres unmarked) [15_39] | 18% | 3% | – | – | – | –
25 | C=CCNC(=O)c1cc(-c2ccc(Br)cc2)on1 [compound 301] | – | – | 0% | 0% | – | –
26 | O=C(O)CSc1cccc(SCC(=O)O)c1 [compound 293] | – | – | 5% | 0% | – | –
27 | O=C(O)/C=C/c1ccc(S(=O)(=O)NCc2ccc3c(c2)OCO3)cc1 [compound 070] | – | – | 5% | 13% | – | –
28 | O=C(O)c1ccc(-n2ncc(Cl)c(Cl)c2=O)cc1 [compound 217] | – | – | 0% | 0% | – | –
29 | NC(=O)c1sc2nc(-c3ccc(F)cc3)cc(-c3ccccc3)c2c1N [03_21] | 58% | 22% | – | – | – | –
30 | O=C(O)c1ccc(Nc2nc(-c3ccc(Cl)cc3)cs2)cc1 [compound 030] | – | – | 28% | 22% | – | –
31 | O=C(O)CCC(=O)NCc1ccc(C(=O)O)cc1 [compound 238] | – | – | 14% | 0% | – | –
32 | Nc1c(C(=O)Nc2ccc(F)c(F)c2)sc2nc(-c3cccs3)ccc12 [03_14] | 92% | 46% | – | – | 38 µM | 117 µM
33 | O=C(O)CSc1nc(=O)cc(-c2ccccc2)[nH]1 [compound 176] | – | – | 0% | 3% | – | –
34 | Nc1c(C(=O)Nc2cc(Cl)cc(Cl)c2)sc2nc(-c3cccs3)ccc12 [03_03] | 90% | 93% | – | – | 21 µM | 64 µM
35 | Nc1nonc1C(=O)N/N=C/c1cc(Br)cc(Br)c1O [compound 040] | – | – | 20% | 19% | – | –
36 | CC1=C(C)CC(C(=O)Nc2ccc(I)cc2)C(C(=O)O)C1 (centres unmarked) [compound 144] | – | – | 65% | 6% | – | –
37 | Cc1cc(C)c(N/C=C2\C(=O)Nc3ccccc32)c(C)c1 [15_21] | 30% | 10% | – | – | – | –
38 | O=C(Nc1ccc([N+](=O)[O-])cn1)c1sc2ccccc2c1Cl [compound 186] | – | – | 9% | 2% | – | –
39 | Cc1nnc(SCC(=O)Nc2ccc(Cl)cn2)s1 [compound 088] | – | – | 0% | 11% | – | –
40 | Nc1nnc(-c2cc(-c3ccc(Cl)cc3)on2)o1 [compound 183] | – | – | 7% | 3% | – | –

Row | SMILES | inhibition at 50 µM [1] | inhibition at 100 µM [2] | […]. anthracis [1] | […]. coli [2] | IC50 [1] | IC50 [2]
41 | CSc1sc(C(=O)O)c(I)c1S(=O)(=O)C(C)C [compound 158] | – | – | 36% | 4% | – | –
42 | O=[N+]([O-])c1cc(Cl)ccc1NCCCNS(=O)(=O)c1ccccc1 [compound 165] | – | – | 0% | 4% | – | –
43 | CN1CCN(C(=O)c2ccccc2C(=O)O)CC1 [compound 190] | – | – | 0% | 1% | – | –
44 | O=C(/C=C/c1ccoc1)c1ccccc1O [compound 151] | – | – | 0% | 5% | – | –
45 | Nc1nnc(SCC(=O)Nc2nccs2)n1-c1ccccc1 [compound 058] | – | – | 0% | 15% | – | –
46 | Cc1ccc(N/C=C2\C(=O)Nc3ccccc32)c(C)c1 [15_02] | 29% | 20% | – | – | – | –
47 | COc1cc(Br)cc(/C=C2/SC(=S)NC2=O)c1O [compound 037] | – | – | 0% | 20% | – | –
48 | O=C(O)c1cc(NC(=O)c2ccc(Cl)cc2Cl)cc(C(=O)O)c1 [compound 209] | – | – | 0% | 0% | – | –
49 | OCC#CCSc1nnc(-c2cccc(Br)c2)o1 [compound 255] | – | – | 0% | 0% | – | –
50 | NS(=O)(=O)c1ccc(/N=C/c2ccc(Cl)cc2Cl)cc1 [compound 118] | – | – | 0% | 8% | – | –
51 | Nc1c(C(=O)Nc2ccc(F)c(F)c2)sc2nc(-c3ccncc3)ccc12 [compound 287] | – | – | 0% | 0% | – | –
52 | O=C(O)/C=C\C(=O)Nc1ccc(Br)c(Cl)c1 [compound 131] | – | – | 0% | 7% | – | –
53 | NS(=O)(=O)c1ccc(/N=C/c2ccc(Br)cc2)cc1 [compound 214] | – | – | 0% | 0% | – | –
54 | CCCn1cc(C(CC(=O)O)C(=O)O)c2ccccc21 (centres unmarked) [compound 110] | – | – | 0% | 9% | – | –
55 | Nc1nn(S(=O)(=O)c2ccccc2)cc1-c1ccc(Cl)cc1 [compound 237] | – | – | 0% | 0% | – | –
56 | O=S(=O)(Nc1nc2ccccc2s1)c1ccc(Cl)s1 [compound 284] | – | – | 7% | 0% | – | –
57 | O=C1Nc2ccccc2/C1=C/NC1CCCCC1 [15_33] | 15% | 6% | – | – | – | –
58 | Nc1nc(-c2ccc(Cl)c([N+](=O)[O-])c2)n[nH]1 [compound 288] | – | – | 0% | 0% | – | –
59 | O=C(O)CCNc1ccc(Br)cc1C(=O)O [compound 087] | – | – | 0% | 11% | – | –
